Laboratory results from patent publication US20230085307A1, “PYRIDAZINONE COMPOUND AND HERBICIDE” (NISSAN CHEMICAL CORPORATION, priority 2019, published 2023).

Key:
wild oat [1] = assay: Test Example 5: herbicidal effect by foliage application, plastic box (Table 20, symbol I); format: in vivo, wild oat (Avena fatua); conditions: foliage application, 320 g/ha, 3 weeks after application
Summary of the method: (§1)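 Post-emergence foliar test in sterilized diluvial soil. Compound applied as water-diluted emulsion at a predetermined rate to 14-day-old plants; evaluation at three weeks.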

blackgrass [2] = assay: Test Example 4: herbicidal effect by soil treatment (Table 19, symbol J); format: in vivo, blackgrass (Alopecurus myosuroides); conditions: AAH 320 g/ha
Summary of the method: (§2)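 Scoring uses the grading scale of an earlier test, three weeks post-application. Treatment consists of spraying a diluted emulsion formulation across the surface of sterilized diluvial soil in which seeds are buried near 1.5 cm deep; boxes are kept in a greenhouse between 25° C. and 30° C.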

velvetleaf [3] = assay: Test Example 5: herbicidal effect by foliage application, plastic box (Table 20, symbol M); format: in vivo, velvetleaf (Abutilon theophrasti); conditions: foliage application, 320 g/ha, 3 weeks after application
Summary of the method: as §1

chickweed = assay: Test Example 4: herbicidal effect by soil treatment (Table 19, symbol P); format: in vivo, common chickweed (Stellaria media); conditions: AAH 320 g/ha
Summary of the method: as §2

oval-leafed pondweed = assay: Test Example 1: herbicidal activity, application before weed generation under submerged conditions (Table 16, symbol C); format: in vivo, oval-leafed pondweed (Monochoria vaginalis); conditions: 320 g/ha applied herbicide
Summary of the method: (§3)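 Alluvial soil was flooded to 4 cm depth, weed seeds were sown mixed and 2.5-leaf rice seedlings were transplanted. On sowing day, the compound's emulsion, diluted in water to a set dose, was applied to the water surface. Plants grew at 25–30 °C and were scored 0–5 after three weeks.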

persian speedwell [4] = assay: Test Example 5: herbicidal effect by foliage application, plastic box (Table 20, symbol R); format: in vivo, Persian speedwell (Veronica persica); conditions: foliage application, 320 g/ha, 3 weeks after application
Summary of the method: as §1

wild oat [5] = assay: Test Example 4: herbicidal effect by soil treatment (Table 19, symbol I); format: in vivo, wild oat (Avena fatua); conditions: AAH 320 g/ha
Summary of the method: as §2

redroot pigweed = assay: Test Example 4: herbicidal effect by soil treatment (Table 19, symbol N); format: in vivo, redroot pigweed (Amaranthus retroflexus); conditions: AAH 320 g/ha
Summary of the method: as §2

persian speedwell [6] = assay: Test Example 4: herbicidal effect by soil treatment (Table 19, symbol R); format: in vivo, Persian speedwell (Veronica persica); conditions: AAH 320 g/ha
Summary of the method: as §2

windgrass [7] = assay: Test Example 5: herbicidal effect by foliage application, plastic box (Table 20, symbol L); format: in vivo, windgrass (Apera spica-venti); conditions: foliage application, 320 g/ha, 3 weeks after application
Summary of the method: as §1

late watergrass = assay: Test Example 1: herbicidal activity, application before weed generation under submerged conditions (Table 16, symbol A); format: in vivo, late watergrass (Echinochloa oryzicola); conditions: 320 g/ha applied herbicide
Summary of the method: as §3

rice flat sedge = assay: Test Example 3: herbicidal effect by foliage application, Wagner pot (Table 18, symbol E); format: in vivo, rice flat sedge (Cyperus iria); conditions: 320 g/ha
Summary of the method: (§4)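 Plants were sown in alluvial soil held under 0.1–0.5 cm standing water and grown 14 days in a greenhouse at 25–30 °C. An emulsifiable formulation, water-diluted to the set dose, was then sprayed onto the foliage, and effects were scored three weeks later using previously defined criteria.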

blackgrass [8] = assay: Test Example 5: herbicidal effect by foliage application, plastic box (Table 20, symbol J); format: in vivo, blackgrass (Alopecurus myosuroides); conditions: foliage application, 320 g/ha, 3 weeks after application
Summary of the method: as §1

green foxtail [9] = assay: Test Example 5: herbicidal effect by foliage application, plastic box (Table 20, symbol G); format: in vivo, green foxtail (Setaria viridis); conditions: foliage application, 320 g/ha, 3 weeks after application
Summary of the method: as §1

barnyard grass [10] = assay: Test Example 4: herbicidal effect by soil treatment (Table 19, symbol H); format: in vivo, barnyard grass (Echinochloa crus-galli); conditions: AAH 320 g/ha
Summary of the method: as §2

Chinese sprangletop = assay: Test Example 3: herbicidal effect by foliage application, Wagner pot (Table 18, symbol D); format: in vivo, chinese sprangletop (Leptochloa chinensis); conditions: 320 g/ha
Summary of the method: as §4

southern crabgrass [11] = assay: Test Example 5: herbicidal effect by foliage application, plastic box (Table 20, symbol F); format: in vivo, southern crabgrass (Digitaria ciliaris); conditions: foliage application, 320 g/ha, 3 weeks after application
Summary of the method: as §1

southern crabgrass [12] = assay: Test Example 4: herbicidal effect by soil treatment (Table 19, symbol F); format: in vivo, southern crabgrass (Digitaria ciliaris); conditions: AAH 320 g/ha
Summary of the method: as §2

Japanese bulrush = assay: Test Example 1: herbicidal activity, application before weed generation under submerged conditions (Table 16, symbol B); format: in vivo, Japanese bulrush (Schoenoplectus juncoides); conditions: 320 g/ha applied herbicide
Summary of the method: as §3

barnyard grass [13] = assay: Test Example 5: herbicidal effect by foliage application, plastic box (Table 20, symbol H); format: in vivo, barnyard grass (Echinochloa crus-galli); conditions: foliage application, 320 g/ha, 3 weeks after application
Summary of the method: as §1

lambsquarters [14] = assay: Test Example 4: herbicidal effect by soil treatment (Table 19, symbol O); format: in vivo, lambsquarters (Chenopodium album); conditions: AAH 320 g/ha
Summary of the method: as §2

green foxtail [15] = assay: Test Example 4: herbicidal effect by soil treatment (Table 19, symbol G); format: in vivo, green foxtail (Setaria viridis); conditions: AAH 320 g/ha
Summary of the method: as §2

Italian ryegrass [16] = assay: Test Example 4: herbicidal effect by soil treatment (Table 19, symbol K); format: in vivo, Italian ryegrass (Lolium multiflorum); conditions: AAH 320 g/ha
Summary of the method: as §2

lambsquarters [17] = assay: Test Example 5: herbicidal effect by foliage application, plastic box (Table 20, symbol O); format: in vivo, lambsquarters (Chenopodium album); conditions: foliage application, 320 g/ha, 3 weeks after application
Summary of the method: as §1

windgrass [18] = assay: Test Example 4: herbicidal effect by soil treatment (Table 19, symbol L); format: in vivo, windgrass (Apera spica-venti); conditions: AAH 320 g/ha
Summary of the method: as §2

barnyard grass [19] = assay: Test Example 3: herbicidal effect by foliage application, Wagner pot (Table 18, symbol H); format: in vivo, barnyard grass (Echinochloa crus-galli); conditions: 320 g/ha
Summary of the method: as §4

Italian ryegrass [20] = assay: Test Example 5: herbicidal effect by foliage application, plastic box (Table 20, symbol K); format: in vivo, Italian ryegrass (Lolium multiflorum); conditions: foliage application, 320 g/ha, 3 weeks after application
Summary of the method: as §1

velvetleaf [21] = assay: Test Example 4: herbicidal effect by soil treatment (Table 19, symbol M); format: in vivo, velvetleaf (Abutilon theophrasti); conditions: AAH 320 g/ha
Summary of the method: as §2

Cc1nn(C)c(=O)c(-c2c(-c3ccc(OC(C)C#N)cc3)sc3ccccc23)c1O (racemic) [1-236]
effect on wild oat (I) (wild oat [1]): 5 (Herbicidal rate of 90% or more (almost completely withered)) | J: blackgrass, herbicidal effect rating (blackgrass [2]): 0 (Herbicidal rate of 5% or less (almost no effect)) | effect on velvetleaf (M) (velvetleaf [3]): 5 (Herbicidal rate of 90% or more (almost completely withered)) | P: chickweed, herbicidal effect rating (chickweed): 4 (Herbicidal rate of 70% or more and less than 90%) | Herbicidal effect on C: oval-leafed pondweed (grade 0-5) (oval-leafed pondweed): 0 (Herbicidal rate of 5% or less (almost no effect)) | effect on persian speedwell (R) (persian speedwell [4]): 5 (Herbicidal rate of 90% or more (almost completely withered)) | I: wild oat, herbicidal effect rating (wild oat [5]): 0 (Herbicidal rate of 5% or less (almost no effect)) | N: redroot pigweed, herbicidal effect rating (redroot pigweed): 5 (Herbicidal rate of 90% or more (almost completely withered)) | R: persian speedwell, herbicidal effect rating (persian speedwell [6]): 4 (Herbicidal rate of 70% or more and less than 90%) | effect on windgrass (L) (windgrass [7]): 0 (Herbicidal rate of 5% or less (almost no effect)) | Herbicidal effect on A: late watergrass (grade 0-5) (late watergrass): 3 (Herbicidal rate of 40% or more and less than 70%) | herbicidal effect on E (rice flat sedge), rating 0-5 (rice flat sedge): 5 (Herbicidal rate of 90% or more (almost completely withered)) | effect on blackgrass (J) (blackgrass [8]): 4 (Herbicidal rate of 70% or more and less than 90%) | effect on green foxtail (G) (green foxtail [9]): 4 (Herbicidal rate of 70% or more and less than 90%) | H: barnyard grass, herbicidal effect rating (barnyard grass [10]): 5 (Herbicidal rate of 90% or more (almost completely withered)) | herbicidal effect on D (Chinese sprangletop), rating 0-5 (Chinese sprangletop): 5 (Herbicidal rate of 90% or more (almost completely withered)) | effect on southern crabgrass (F) (southern crabgrass [11]): 4 (Herbicidal rate of 70% or more and less than 90%) | F: southern crabgrass, herbicidal effect rating (southern crabgrass [12]): 4 (Herbicidal rate of 70% or more and less than 90%) | Herbicidal effect on B: Japanese bulrush (grade 0-5) (Japanese bulrush): 0 (Herbicidal rate of 5% or less (almost no effect)) | effect on barnyard grass (H) (barnyard grass [13]): 5 (Herbicidal rate of 90% or more (almost completely withered)) | O: lambsquarters, herbicidal effect rating (lambsquarters [14]): 4 (Herbicidal rate of 70% or more and less than 90%) | G: green foxtail, herbicidal effect rating (green foxtail [15]): 4 (Herbicidal rate of 70% or more and less than 90%) | K: Italian ryegrass, herbicidal effect rating (Italian ryegrass [16]): 3 (Herbicidal rate of 40% or more and less than 70%) | effect on lambsquarters (O) (lambsquarters [17]): 5 (Herbicidal rate of 90% or more (almost completely withered)) | L: windgrass, herbicidal effect rating (windgrass [18]): 0 (Herbicidal rate of 5% or less (almost no effect)) | herbicidal effect on H (barnyard grass), rating 0-5 (barnyard grass [19]): 5 (Herbicidal rate of 90% or more (almost completely withered)) | effect on Italian ryegrass (K) (Italian ryegrass [20]): 5 (Herbicidal rate of 90% or more (almost completely withered)) | M: velvetleaf, herbicidal effect rating (velvetleaf [21]): 1 (Herbicidal rate of 5% or more and less than 20%)
